Measured values reported in PMC9672079, “Micro-PET imaging of hepatitis C virus NS3/4A protease activity using a protease-activatable retention probe” (Frontiers in Microbiology, 2022).
Square brackets hold non-standard residues; d marks the D form. Peptide text beside a SMILES is read from it. * marks the point of attachment. FITC = O=C1OC2(c3ccc(O)cc3Oc3cc(O)ccc32)c2ccc(NC(=S)*)cc21; Tyr(3-I) = N[C@@H](Cc1ccc(O)c(I)c1)C(=O)O

Columns and labels:
HCC36 cells [1] = assay: Specific retention of probe via flow cytometry; type: cell-based, Human; settings: control HCC36 cells, 10 μM probe 1 h, washed three times per hour, 8 h
Experimental: (§1) We also used the WT probe (GRKKRRQRRR-[…]-LKKKYK-FITC) and the scrambled sequence probe (GRKKRRQRRR-[…]-LKKKYK) that could not be activated by protease as a control group to test the specific retention of probe via flow cytometry. HCC36 cells, NS3/4A-HCC36 cells, or JFH-1-infected HCC36 cells were incubated with 10 μM TAT-ΔNS3/4A-FITC or 10 μM TAT-scrambled NS3/4A-FITC in the absence or presence of 2 μM telaprevir (NS3/4A protease inhibitor) at 37 °C for 1 h. The cells were washed with DMEM containing 10% serum three times per hour. After culturing for 1 or 8 h, the fluorescence of viable cells was observed via flow cytometry.
(§2) Supplementary file Image_5.TIF: Supplementary Figure 5 To evaluate the specific retention of probe via flow cytometry, we used the WT probe (GRKKRRQRRR-[…]-LKKKYK-FITC) and the scrambled sequence probe (GRKKRRQRRR-[…]-LKKKYK) that could not be activated by protease as a control group to test the specific retention of probe via flow cytometry. HCC36 cells, NS3/4A-HCC36 cells, or JFH-1-infected HCC36 cells were incubated with 10 μM TAT-ΔNS3/4A-FITC or 10 μM TAT-scrambled NS3/4A-FITC in the absence or presence of 2 μM telaprevir (NS3/4A protease inhibitor) at 37°C for 1 h. The cells were washed with DMEM containing 10% serum three times per hour. After culturing for 1 or 8 h, the fluorescence of viable cells was observed via flow cytometry. Click here for additional data file.

NS3/4A-HCC36 cells [2] = assay: Specific retention of probe via flow cytometry; type: cell-based, Human; settings: 10 μM probe 1 h, washed three times per hour, 8 h
Experimental: as §1, §2

[3] = tested on: JFH-1-infected HCC36 cells; assay: Specific retention of probe via flow cytometry; type: cell-based, Human; settings: 10 μM probe 1 h, washed three times per hour, 8 h
Experimental: as §1, §2

[4] = tested on: NS3/4A-HCC36 and HCC36 tumors; assay: Micro-PET imaging of NS3/4A activity in xenograft mice (ROI analysis); type: in vivo, BALB/c nude mice; settings: 6 h, n = 3
Experimental: BALB/c nude mice (n = 3) bearing established HCC36 and NS3/4A-HCC36 (100–200 mm^3) in their right and left hind leg, respectively, were anesthetized by halothane vapor with a vaporizer system. The mice were feed the Lugol’s solution and then intravenously injected with 3,700 kBq (in 100 μL) TAT-ΔNS3/4A-^124I-FITC. PET imaging was sequentially performed at 2, 4, and 6 h. To test the specificity of TAT-ΔNS3/4A-^124I-FITC, telaprevir (20 mg/kg/day for 3 days) or control vehicle was intraperitoneally injected into mice (n = 3) 3 days prior to TAT-ΔNS3/4A-^124I-FITC.
The mice were positioned in a micro-PET scanner (R4; Concorde Microsystems, Knoxville, Tenn) with their long axis parallel to the transaxial plane of the scanner. The scanner has a computer-controlled bed with a 10.8-cm transaxial and 8-cm axial field of view. It has no septa and operates exclusively in a three-dimensional list mode. All raw data were first sorted into three-dimensional sinograms, followed by Fourier rebinning and ordered-subsets expectation maximization image reconstruction. Fully three-dimensional list-mode data were collected by using an energy window of 350–750 keV and a time window of 6 nsec. Image pixel size was 0.85 mm transaxially, with a 1.21-mm section thickness. The region of interest was analyzed with ASIPro VM version 5.0 (Concorde Microsystems, Knoxville, TN, USA) analysis software. […]

[5] = Blood kinetics (half-life) of TAT-ΔNS3/4A-124I-FITC in mice; set-up: species or system BALB/c nude mice; settings: mouse, in vivo, iv, 3700 kBq; BALB/c mice, i.v., 4 h after injection, gamma-counter; read-out: radioactivity in the blood
Text: BALB/c nude mice (n = 3) were intravenously injected with 3,700 kBq TAT-ΔNS3/4A-^124I-FITC, and blood samples were periodically removed from the tail vein of the mice. The blood was weighed on an analytical balance and assayed for radioactivity in a multichannel gamma-counter. The initial and terminal half-life of the probe was estimated by fitting the data to a two-phase exponential decay model with Prism 4 software (GraphPad Software, San Diego, CA, USA).
(§3) FIGURE 4 Specificity and half-life of TAT-ΔNS3/4A-^124I-FITC. (A) NS3/4A-HCC36 and HCC36 cells were incubated with 37 kBq of TAT-ΔNS3/4A-^124I-FITC in the presence or absence of 2 μM Telaprevir at 37°C for 1 h. The cells were washed with DMEM containing 10% serum three times per hour. The cells were collected by treatment with trypsin at the indicated times. The radioactivity of the cells was then measured with a gamma-counter. The CPM was normalized by protein concentration. […] Error bar: standard error of triplicate determinations.

HCC36 cells [6] = assay: Cellular retention of radioactivity of TAT-ΔNS3/4A-124I-FITC, gamma-counter; type: cell-based, Human; settings: control HCC36 cells, 37 kBq probe 37°C 1 h, cultured 0, 4, 6, 8 h with washing, CPM normalized by protein
Experimental: (§4) HCC36 or NS3/4A-HCC36 (1 × 10^5) cells were seeded with DMEM containing 10% serum in a 24-well plate at 37°C in a CO2 incubator overnight. The cells were incubated with 37 kBq of TAT-ΔNS3/4A-^124I-FITC in the presence or absence of 2 μM telaprevir (Vertex, Cambridge MA) at 37°C for 1 h. After probe staining, the cells were washed using DMEM containing 10% serum per 20 min until the end of the experiment. At different time points, the cells were collected by treatment with trypsin. The radioactivity of the cells was then measured using a gamma-counter. The CPM was normalized by protein concentration.
as §3

NS3/4A-HCC36 cells [7] = assay: as above; type: cell-based, Human
Experimental: as §4, §3

[8] = tested on: liver-implanted NS3/4A-HCC36 or HCC36 tumors; assay: Micro-PET imaging in orthotopic liver implantation tumor model (ROI analysis); type: in vivo; settings: SCID mice n = 3, i.v. 3,700 kBq, micro-PET 4 h
Text: The orthotopic liver implantation model was generated as previously described ([Kim et al., 2009]). The NS3/4A-HCC36 tumors or HCC36 tumors from the ectopic tumors were harvested and transplanted into the left liver lobe of SCID mice (n = 3). After 2 weeks, the mice were feed the Lugol’s solution, and then, the 3,700 kBq of TAT-ΔNS3/4A-^124I-FITC was intravenously injected.
The mice were positioned in a micro-PET scanner (R4; Concorde Microsystems, Knoxville, Tenn) with their long axis parallel to the transaxial plane of the scanner. The scanner has a computer-controlled bed with a 10.8-cm transaxial and 8-cm axial field of view. It has no septa and operates exclusively in a three-dimensional list mode. All raw data were first sorted into three-dimensional sinograms, followed by Fourier rebinning and ordered-subsets expectation maximization image reconstruction. Fully three-dimensional list-mode data were collected by using an energy window of 350–750 keV and a time window of 6 nsec. […] The region of interest was analyzed with ASIPro VM version 5.0 (Concorde Microsystems, Knoxville, TN, USA) analysis software.
FIGURE 7 Micro-PET Imaging of NS3/4A activity in orthotopic liver implantation model. […] (B) The accumulation of radioactivity in NS3/4A-HCC36 tumors and HCC36 tumors was measured using a gamma-counter at 2 (white column), 4 (black column), and 6 (gray column) h after probe injection. […]

[9] = tested on: liver-implanted NS3/4A-HCC36 or HCC36 tumors; assay: Radioactivity of liver-implanted tumors, gamma-counter; type: in vivo, SCID mice; settings: orthotopic liver model, i.v. 3,700 kBq, 6 h
Experimental: (§5) In xenograft model, BALB/c nude mice bearing established NS3/4A-HCC36 and HCC36 tumors (n = 3) were intravenously injected with 3,700 kBq (in 100 μL) TAT-ΔNS3/4A-^124I-FITC. In orthotopic model, SCID mice (n = 3) with NS3/4A-HCC36 or HCC36 tumors implanted in the liver were intravenously also injected with 3,700 kBq (in 100 μL) TAT-ΔNS3/4A-^124I-FITC. Animals were killed after anesthesia with pentobarbital (65 mg/kg) at 2, 4, and 6 h. Radioactivity in isolated tumors and tissues was measured with a multichannel gamma-counter. The biodistribution of the probe was expressed as percentage injected dose per gram of tissue (%ID/g).
FIGURE 7 Micro-PET Imaging of NS3/4A activity in orthotopic liver implantation model. The NS3/4A-HCC36 tumors or HCC36 tumors from the ectopic tumors were harvested and transplanted into the left liver lobe of SCID mice (n = 3). After 2 weeks, the 3,700 kBq of TAT-ΔNS3/4A-^124I-FITC was intravenously injected. (A) PET imaging was performed at 4 h after injection of the probe. (B) The accumulation of radioactivity in NS3/4A-HCC36 tumors and HCC36 tumors was measured using a gamma-counter at 2 (white column), 4 (black column), and 6 (gray column) h after probe injection. Data represent mean ± SEM. Student’s t-test analysis of data. Statistical analysis was compared NS3/4A-HCC36 with HCC36. P < 0.05 was considered statistically significant.

[10] = tested on: NS3/4A-HCC36 and HCC36 tumors; assay: Biodistribution in xenograft mice, gamma-counter; type: in vivo, BALB/c nude mice
Experimental: as §5
FIGURE 6 Biodistribution of TAT-ΔNS3/4A-^124I-FITC in xenograft mice. Mice bearing established NS3/4A-HCC36 and HCC36 tumors were injected with 3,700 kBq of TAT-ΔNS3/4A-^124I-FITC. Selected organs and tumors were removed from the mice after 2 (white column), 4 (black column), and 6 (gray column) h. The radioactivity of individual organs was measured using a gamma-counter and normalized for sample weights. The biodistribution of TAT-ΔNS3/4A-^124I-FITC in selected organs was expressed as percentage injected dose/g tissue. Data represent mean ± SEM.

[11] = Long-term biodistribution in xenograft mice; type: in vivo; settings: i.v. 3,700 kBq, gamma-counter
Experimental: Supplementary file Image_4.TIF: Supplementary Figure 4 Long-term biodistribution of TAT-ΔNS3/4A-^124I-FITC in xenograft mice. Mice were injected with 3,700 kBq of TAT-ΔNS3/4A-^124I-FITC. Selected organs and tumors were removed from the mice after 4, 12, and 24 h. The radioactivity of individual organs was measured using a gamma-counter and normalized for sample weights. The biodistribution of TAT-ΔNS3/4A-^124I-FITC in selected organs was expressed as percentage injected dose/g tissue. Data represent mean ± SEM. Click here for additional data file.

Row | Compound | fluorescence retention after culturing for 8 h (HCC36 cells [1]) | fluorescence retention after culturing for 8 h (NS3/4A-HCC36 cells [2]) | fluorescence retention after culturing for 8 h [3] | ROI radioactivity, NS3/4A-HCC36 tumors vs HCC36 tumors ([4]; i.v. 3,700 kBq) | ROI radioactivity, NS3/4A-HCC36 tumors vs HCC36 tumors, after inhibitor treatment ([4]; telaprevir 20 mg/kg/day i.p. for 3 days before probe) | tissue uptake at 4 h [5] | radioactivity retained in the cells (HCC36 cells [6]) | radioactivity retained in the cells (NS3/4A-HCC36 cells [7]; 37 kBq probe 37°C 1 h, cultured 0, 4, 6, 8 h with washing, CPM normalized by protein) | radioactivity retained in the cells after inhibitor treatment (NS3/4A-HCC36 cells [7]; 37 kBq probe + 2 μM telaprevir) | ROI, implanted NS3/4A-HCC36 tumors vs HCC36 tumors [8] | uptake of radioactivity, implanted NS3/4A-HCC36 tumors vs implanted HCC36 tumors [9] | radioactivity in normal organs (stomach, kidneys) ([10]; i.v. 3,700 kBq, 2, 4, 6 h) | accumulation of radioactivity, NS3/4A-HCC36 tumors vs HCC36 tumors ([10]; i.v. 3,700 kBq, 6 h, %ID/g, n = 3) | radioactivity in tissues at 24 h ([11]; 24 h) | long-term accumulation of probe in kidney (and stomach) ([11]; organs at 4, 12, 24 h)
1 | GRKKRRQRRR-ECEEEEESMDDDAH-LKKKYK [scrambled sequence probe] | cannot be accumulated in each cell | cannot be accumulated in each cell | cannot be accumulated in each cell |  |  |  |  |  |  |  |  |  |  |  | 
2 | CSCC[C@H](NC(=O)[C@H](CCC(=O)O)NC(=O)[C@H](CC(=O)O)NC(=O)[C@H](CCC(=O)O)NC(=O)[C@H](CC(=O)O)NC(=O)[C@H](CCC(=O)O)NC(=O)[C@H](CC(=O)O)NC(=O)[C@H](CCC(=O)O)NC(=O)[C@H](CC(=O)O)NC(=O)[C@H](CCCNC(=N)N)NC(=O)[C@H](CCCNC(=N)N)NC(=O)[C@H](CCCNC(=N)N)NC(=O)[C@H](CCC(N)=O)NC(=O)[C@H](CCCNC(=N)N)NC(=O)[C@H](CCCNC(=N)N)NC(=O)[C@H](CCCCN)NC(=O)[C@H](CCCCN)NC(=O)[C@H](CCCNC(=N)N)NC(=O)CN)C(=O)N[C@@H](CCC(=O)O)C(=O)N[C@@H](CCC(=O)O)C(=O)N[C@@H](CS)C(=O)N[C@@H](C)C(=O)N[C@@H](CO)C(=O)N[C@@H](Cc1c[nH]cn1)C(=O)N[C@@H](CC(C)C)C(=O)N[C@@H](CCCCN)C(=O)N[C@@H](CCCCN)C(=O)N[C@@H](CCCCN)C(=O)N[C@@H](Cc1ccc(O)c(I)c1)C(=O)N[C@@H](CCCCNC(=S)Nc1ccc2c(c1)C(=O)OC21c2ccc(O)cc2Oc2cc(O)ccc21)C(=O)O [TAT-ΔNS3/4A-^124I-FITC] (H-GRKKRRQRRRDEDEDEDEMEECASHLKKK[Tyr(3-I)]K(FITC)-OH; N-terminus and C-terminus assumed) |  |  |  | 2.53 fold | 1.31 fold | 2.6 ± 0.1 %ID/g | not in control HCC36 cells | A high level of radioactivity was detected | radioactivity did not accumulate | 4.75 fold | 3.1 fold | high levels of radioactivity were observed in the stomach and kidneys | 2.7 fold | did not accumulate in the all of tissues at 24 h | accumulation of probe in kidney and in stomach would quickly reduce at 12 and 24 h
